Experimental data published in patent US12473332B2, “Modified peptides and associated methods of use” (Advanced Technologies For Novel Therapeutics, LLC, priority 2019, dated 2025).
Where no end group is shown, it is not given here.

Legend:
[1] = tested on: N2a cells; test: AKT-PKAc complex and neurite count in cultured N2a neurons; format: cell-based; conditions: 24 hours treatment
Protocol: Accordingly, the stability and phenotypic consequences of the AKT-PKAc complex was also analyzed in cultured neurons. N2a cells were treated with vehicle, ZaTa or control peptide for 24 hours. Media was removed after the 24-hour treatment and an equal number of cells from each treatment group was either cultured for another 24 hours without treatment, or lysed and subjected to immunoprecipitation with an antibody against AKT. Those cells cultured for another 24 hours were also harvested and subjected to immunoprecipitation. In parallel, the number of individual neurons with neurites was counted. […] Live images of N2a neurons were captured following treatment with vehicle or ZaTa (2 or 5 μM). […] ZaTa-mediated changes included a progressive loss of neurites, inhibition of new neurite formation, loss of cell motility, as well as formation of large cell colonies.

[2] = target: T1, AKT-PKAc complex (Mus musculus, UniProt P31750); test: AKT immunoprecipitation from striatum after stereotactic injection; format: in vivo, C57BL/6 mouse; conditions: ZaTa vs vehicle hemisphere
T1 construct: ZaTa could disrupt the physical complex between AKT and PKAc in vivo; from tissue; host or cells: mouse striatum
T1 sequence (P31750 whole entry, one chain of several): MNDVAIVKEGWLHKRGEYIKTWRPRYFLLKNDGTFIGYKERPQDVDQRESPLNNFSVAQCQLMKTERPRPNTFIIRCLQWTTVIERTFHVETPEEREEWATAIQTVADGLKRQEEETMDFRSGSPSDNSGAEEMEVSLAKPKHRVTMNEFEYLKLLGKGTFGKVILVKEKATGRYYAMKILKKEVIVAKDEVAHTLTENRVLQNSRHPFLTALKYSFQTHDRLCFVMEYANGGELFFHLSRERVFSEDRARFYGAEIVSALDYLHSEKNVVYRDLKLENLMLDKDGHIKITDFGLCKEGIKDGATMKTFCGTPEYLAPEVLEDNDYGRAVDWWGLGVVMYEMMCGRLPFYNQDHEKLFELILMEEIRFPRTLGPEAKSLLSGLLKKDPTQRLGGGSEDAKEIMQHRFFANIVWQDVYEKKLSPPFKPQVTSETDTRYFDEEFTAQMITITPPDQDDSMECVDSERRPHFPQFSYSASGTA
Protocol: The phenotypic consequence of disrupting the AKT-PKAc complex was also determined. ZaTa peptide was injected into the striatum of one hemisphere of the brain and DMSO, as vehicle, was injected into the other brain hemisphere of an adult C57BL/6 mouse under anesthesia. The brain was removed and dissected. Equal protein amounts from each hemisphere were subjected to immunoprecipitation by an anti-AKT antibody. […] To compare PKAc protein levels in the ZaTa- and vehicle-treated brain hemisphere lysates, western blot analysis was conducted.

[3] = target: AKT (Homo sapiens, UniProt P31749); test: in vitro AKT kinase assay with Ser-9 GSK-3 GST fusion protein substrate; PKAc peptide library screen; format: biochemical; conditions: Ser-9 GSK-3 GST substrate
AKT, sequence (P31749 whole entry, the tested form may be a part): as the sequence (P31750 whole entry, one chain of several) above, with N2S, S50A, A100T, R112K, T117E, T389K, N410G, D415H counted along it

[4] = target: T2, JAK3 (Homo sapiens, UniProt P52333); test: in vitro kinase assay, selectivity; format: biochemical; design: dose or concentration left out as unconfirmed
T2 construct: phosphorylation levels of well-known intracellular substrates for each kinase; endogenous in cells
T2 sequence (P52333 whole entry, species assumed): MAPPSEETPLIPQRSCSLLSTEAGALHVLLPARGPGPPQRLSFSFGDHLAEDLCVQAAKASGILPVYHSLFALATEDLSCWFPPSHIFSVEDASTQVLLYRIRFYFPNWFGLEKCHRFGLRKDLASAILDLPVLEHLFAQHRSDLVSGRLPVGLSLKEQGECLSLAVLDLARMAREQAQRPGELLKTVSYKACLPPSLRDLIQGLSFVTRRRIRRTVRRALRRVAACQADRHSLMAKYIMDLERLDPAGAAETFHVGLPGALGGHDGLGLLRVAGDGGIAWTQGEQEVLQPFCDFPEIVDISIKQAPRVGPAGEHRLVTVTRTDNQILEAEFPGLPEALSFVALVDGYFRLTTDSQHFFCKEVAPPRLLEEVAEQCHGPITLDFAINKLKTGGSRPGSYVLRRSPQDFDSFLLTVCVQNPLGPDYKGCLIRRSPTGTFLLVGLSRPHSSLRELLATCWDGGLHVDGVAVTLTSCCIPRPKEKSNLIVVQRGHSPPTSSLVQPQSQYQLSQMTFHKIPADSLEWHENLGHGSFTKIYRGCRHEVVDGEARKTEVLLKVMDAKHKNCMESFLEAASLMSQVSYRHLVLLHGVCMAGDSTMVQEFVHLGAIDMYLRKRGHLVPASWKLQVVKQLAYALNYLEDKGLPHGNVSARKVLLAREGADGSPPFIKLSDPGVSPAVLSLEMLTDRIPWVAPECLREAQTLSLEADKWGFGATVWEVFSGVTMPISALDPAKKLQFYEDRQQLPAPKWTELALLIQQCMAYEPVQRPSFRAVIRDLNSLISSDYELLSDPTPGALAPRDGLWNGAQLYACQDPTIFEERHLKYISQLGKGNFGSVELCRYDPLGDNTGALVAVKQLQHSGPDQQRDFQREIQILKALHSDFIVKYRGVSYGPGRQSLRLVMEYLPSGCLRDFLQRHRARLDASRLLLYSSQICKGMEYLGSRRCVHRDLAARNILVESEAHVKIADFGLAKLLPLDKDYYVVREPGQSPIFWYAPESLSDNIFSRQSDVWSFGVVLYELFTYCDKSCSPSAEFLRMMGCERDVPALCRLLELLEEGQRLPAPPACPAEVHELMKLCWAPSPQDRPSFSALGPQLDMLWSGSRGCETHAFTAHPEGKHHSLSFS
Protocol: (§1) To test the specificity/selectivity of ZaTa as the inhibitor of AKT1 versus the other major kinases, a series of in vitro kinase assays was performed at IC50 for AKT1 and at ten times higher concentrations. A panel of the following 32 kinases was first tested in vitro using the active form of each kinase and a specific substrate: AKT2, AKT3, PKA, PKCα, PKCγ, PI3Kβ, PI3Kδ, PI3Kγ, SGK, PAK2, PAK3, SAPK2/p38, Abl, CaMKII, CDK1/cyclinB, CDK5/p35, CK1, CK2, CSK, GSK3α, GSK3β, JNK1α1, MAPK1, p70S6K, PDGFRα, PDGFRβ, PDK1, PKG1α, TrkB, JAK2, JAK3, and Syk. […] However, at ten times higher concentration, ZaTa inhibited AKT2 (63%), PI3Kδ (72%), p70S6K (64%), SGK (73%), PAK3 (83%), JAK3 (79%), TrkB (84%), and Abl (42%). To confirm the in vitro inhibitory effect on these kinases in cells, a cell-based assay was used to determine the effect of labeled ZaTa on the phosphorylation levels of well-known intracellular substrates for each kinase (Zipfel, et al. (2004) Curr. Biol. 14:1222-1231; Wang, et al. (2003) Arch. Biochem. Biophys. 410:7-15; King, et al. (1998) Nature 396:180-183; Rangone, et al. (2004)Eur. J. Neurosci. 19:273-279; Middlemas, et al. (1994)J. Biol. Chem. 269:5458-5466; Huang, et al. (1999) J. Biol. Chem. 274:7870-7878). The results of this cell-based kinase assay confirmed that ZaTa could inhibit p70S6K besides AKT. […] Given that most of the above-listed kinases have no known inhibitor, it is contemplated that the ZaTa could be used at micromolar concentrations in in vitro studies to inhibit the activity of the select kinases.

[5] = target: Abl (Homo sapiens, UniProt P00519); test: in vitro kinase assay, selectivity; format: biochemical; design: dose or concentration left out as unconfirmed
Protocol: as §1

[6] = target: T3, p70S6K (Homo sapiens, UniProt P23443); test: in vitro kinase assay, selectivity; format: biochemical; design: dose or concentration left out as unconfirmed
T3 construct: phosphorylation levels of well-known intracellular substrates for each kinase; endogenous in cells
T3 sequence (P23443 whole entry): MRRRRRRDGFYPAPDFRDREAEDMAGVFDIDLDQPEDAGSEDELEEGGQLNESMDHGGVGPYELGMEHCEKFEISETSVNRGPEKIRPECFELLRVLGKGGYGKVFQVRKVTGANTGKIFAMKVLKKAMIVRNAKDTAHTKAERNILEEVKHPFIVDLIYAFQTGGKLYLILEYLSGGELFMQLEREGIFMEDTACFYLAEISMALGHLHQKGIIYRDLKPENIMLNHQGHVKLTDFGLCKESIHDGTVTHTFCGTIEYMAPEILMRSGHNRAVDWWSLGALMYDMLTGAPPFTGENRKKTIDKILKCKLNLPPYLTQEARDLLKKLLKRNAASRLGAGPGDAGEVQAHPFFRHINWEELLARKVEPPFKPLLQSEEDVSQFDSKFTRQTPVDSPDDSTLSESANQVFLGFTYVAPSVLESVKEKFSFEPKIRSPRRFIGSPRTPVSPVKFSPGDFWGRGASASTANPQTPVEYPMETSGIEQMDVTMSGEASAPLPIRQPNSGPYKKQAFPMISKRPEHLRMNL
Protocol: as §1

[7] = target: TrkB (Homo sapiens, UniProt Q16620); test: in vitro kinase assay, selectivity; format: biochemical; design: dose or concentration left out as unconfirmed
TrkB, sequence (Q16620 32-822, species assumed): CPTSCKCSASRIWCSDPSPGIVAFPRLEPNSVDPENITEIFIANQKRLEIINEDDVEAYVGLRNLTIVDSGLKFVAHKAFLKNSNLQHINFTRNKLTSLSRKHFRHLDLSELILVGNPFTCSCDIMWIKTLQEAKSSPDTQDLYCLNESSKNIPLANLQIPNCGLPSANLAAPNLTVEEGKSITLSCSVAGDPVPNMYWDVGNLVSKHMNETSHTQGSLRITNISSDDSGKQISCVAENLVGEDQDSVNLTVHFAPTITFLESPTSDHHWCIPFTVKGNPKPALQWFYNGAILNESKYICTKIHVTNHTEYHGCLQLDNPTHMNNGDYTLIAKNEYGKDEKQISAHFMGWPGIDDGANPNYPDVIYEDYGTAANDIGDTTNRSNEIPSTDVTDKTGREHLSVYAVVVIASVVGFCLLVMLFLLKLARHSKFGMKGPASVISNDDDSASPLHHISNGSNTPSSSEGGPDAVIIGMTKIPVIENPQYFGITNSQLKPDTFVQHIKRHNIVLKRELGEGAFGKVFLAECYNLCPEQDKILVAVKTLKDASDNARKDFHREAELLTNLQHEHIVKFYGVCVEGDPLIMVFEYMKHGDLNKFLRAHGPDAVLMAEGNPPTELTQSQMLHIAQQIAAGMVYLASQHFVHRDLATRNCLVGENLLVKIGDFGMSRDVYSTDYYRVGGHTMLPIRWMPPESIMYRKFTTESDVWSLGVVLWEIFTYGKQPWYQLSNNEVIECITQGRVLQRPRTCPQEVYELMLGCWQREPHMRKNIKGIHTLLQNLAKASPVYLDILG
Protocol: as §1

[8] = target: T4, SGK (Homo sapiens, UniProt O00141); test: in vitro kinase assay, selectivity; format: biochemical; design: dose or concentration left out as unconfirmed
T4 construct: phosphorylation levels of well-known intracellular substrates for each kinase; endogenous in cells
T4 sequence (O00141 whole entry, species assumed): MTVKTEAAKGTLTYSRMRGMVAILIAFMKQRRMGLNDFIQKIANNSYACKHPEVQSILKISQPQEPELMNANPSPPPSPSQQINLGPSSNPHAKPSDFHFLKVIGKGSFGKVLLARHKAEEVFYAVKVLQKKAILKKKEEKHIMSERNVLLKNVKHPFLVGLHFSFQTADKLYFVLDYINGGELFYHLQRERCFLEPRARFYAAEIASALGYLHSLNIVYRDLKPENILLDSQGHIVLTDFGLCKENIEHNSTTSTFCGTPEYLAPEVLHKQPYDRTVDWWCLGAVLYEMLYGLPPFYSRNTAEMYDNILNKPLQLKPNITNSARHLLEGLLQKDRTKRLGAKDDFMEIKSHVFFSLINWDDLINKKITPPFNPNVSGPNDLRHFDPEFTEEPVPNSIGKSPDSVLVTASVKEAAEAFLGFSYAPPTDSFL
Protocol: as §1

[9] = target: AKT2 (Homo sapiens, UniProt P31751); test: in vitro kinase assay, selectivity; format: biochemical; design: dose or concentration left out as unconfirmed
AKT2, sequence (P31751 whole entry, species assumed): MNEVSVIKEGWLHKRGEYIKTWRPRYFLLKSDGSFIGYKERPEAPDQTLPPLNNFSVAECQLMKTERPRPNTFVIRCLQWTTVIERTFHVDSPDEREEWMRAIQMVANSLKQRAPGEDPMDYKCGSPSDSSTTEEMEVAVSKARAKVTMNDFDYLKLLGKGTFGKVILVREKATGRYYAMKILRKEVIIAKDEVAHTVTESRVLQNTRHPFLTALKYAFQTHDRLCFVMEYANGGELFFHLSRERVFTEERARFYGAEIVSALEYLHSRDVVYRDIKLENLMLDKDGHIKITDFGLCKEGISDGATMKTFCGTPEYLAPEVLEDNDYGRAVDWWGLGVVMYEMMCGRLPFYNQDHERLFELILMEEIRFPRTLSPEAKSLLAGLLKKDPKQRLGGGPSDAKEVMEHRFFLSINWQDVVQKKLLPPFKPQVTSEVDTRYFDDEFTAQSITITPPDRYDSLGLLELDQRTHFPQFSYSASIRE
Protocol: as §1

[10] = target: PAK3 (Homo sapiens, UniProt O75914); test: in vitro kinase assay, selectivity; format: biochemical; design: dose or concentration left out as unconfirmed
PAK3, sequence (O75914 whole entry, species assumed): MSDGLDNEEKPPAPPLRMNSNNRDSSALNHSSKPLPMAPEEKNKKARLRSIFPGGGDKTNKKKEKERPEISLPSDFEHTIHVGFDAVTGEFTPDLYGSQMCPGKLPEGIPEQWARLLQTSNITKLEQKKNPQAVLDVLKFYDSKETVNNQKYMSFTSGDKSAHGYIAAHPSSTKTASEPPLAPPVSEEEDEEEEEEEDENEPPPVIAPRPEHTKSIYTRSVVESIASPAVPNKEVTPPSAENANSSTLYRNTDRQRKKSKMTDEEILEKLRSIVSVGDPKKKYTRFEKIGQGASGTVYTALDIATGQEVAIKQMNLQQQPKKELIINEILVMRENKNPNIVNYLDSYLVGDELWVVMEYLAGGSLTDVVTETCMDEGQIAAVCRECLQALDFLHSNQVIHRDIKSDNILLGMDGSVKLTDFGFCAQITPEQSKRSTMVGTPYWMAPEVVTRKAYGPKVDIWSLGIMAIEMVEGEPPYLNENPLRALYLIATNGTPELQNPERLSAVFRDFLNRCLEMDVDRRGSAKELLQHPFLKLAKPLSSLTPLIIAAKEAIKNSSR
Protocol: as §1

[11] = tested on: primary neurons; test: TUNEL assay in primary cortical culture; format: cell-based; conditions: 1 μM or 5 μM, 72-hour treatment, vs control peptide
Protocol: It is now well-established that AKT protects against apoptosis through phosphorylation and inhibition of pro-apoptotic mediators such as BAD, FOXO family members and IKK-β (Datta, et al. (1999) Genes Dev. 13:2905-2927). […] Primary neurons were treated with DMSO, 1 μM or 5 μM of either ZaTa or the control peptide for a duration of 1, 3, 16, 24, 48 or 72 hours. The number of apoptotic cells was counted following the TUNEL assay. […] The increase in the number of apoptotic neurons following treatment with ZaTa was consistent with its potent intra-neuronal inhibition of AKT.

## AKRVKGRTWTLCGTPEY [Peptide 53, A-K-R-V-K-G-R-T-W-T-L-C-G-T-P-E-Y]
[1]
  amount of PKAc in physical contact with AKT: reduced the amount of PKAc in physical contact with AKT
  number of neurons with neurites: significant reduction in the number of neurons with neurites
[2]
  amount of PKAc in physical contact with AKT: dramatically reduced
[3]
  inhibitory effect on catalytic activity of AKT: significant inhibitory effects
[3]; listed as ZaTa
  inhibitory effect on catalytic activity of AKT: significantly reduced
[4]
  inhibition: 79%
[5]
  inhibition: 42%
[6]
  inhibition: 64%
[7]
  inhibition: 84%
[8]
  inhibition: 73%
[9]
  inhibition: 63%
[10]
  inhibition: 83%
[11]
  number of TUNEL-positive cells: marked dose-dependent increase in the number of TUNEL-positive cells
